# Molecular target: recombinant human Nav1.7 (Homo sapiens (Human), UniProt Q15858)
# Test: FRET-based membrane potential assay, recombinant human sodium channel Nav1.7
# Type: cell-based
# Settings: FRET-Membrane Potential Nav1.7 IC50
# In short: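 Channel activation used veratridine at its EC80, set by a dilution curve each experiment, together with Leiurus scorpion venom, added 3 min after compound. Membrane-potential ratio signals from FLIPR Tetra in HEPES-buffered HBSS were fitted to a four-parameter Hill equation for percent inhibition and IC50.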
# Chain of recombinant human Nav1.7 (Q15858 whole entry): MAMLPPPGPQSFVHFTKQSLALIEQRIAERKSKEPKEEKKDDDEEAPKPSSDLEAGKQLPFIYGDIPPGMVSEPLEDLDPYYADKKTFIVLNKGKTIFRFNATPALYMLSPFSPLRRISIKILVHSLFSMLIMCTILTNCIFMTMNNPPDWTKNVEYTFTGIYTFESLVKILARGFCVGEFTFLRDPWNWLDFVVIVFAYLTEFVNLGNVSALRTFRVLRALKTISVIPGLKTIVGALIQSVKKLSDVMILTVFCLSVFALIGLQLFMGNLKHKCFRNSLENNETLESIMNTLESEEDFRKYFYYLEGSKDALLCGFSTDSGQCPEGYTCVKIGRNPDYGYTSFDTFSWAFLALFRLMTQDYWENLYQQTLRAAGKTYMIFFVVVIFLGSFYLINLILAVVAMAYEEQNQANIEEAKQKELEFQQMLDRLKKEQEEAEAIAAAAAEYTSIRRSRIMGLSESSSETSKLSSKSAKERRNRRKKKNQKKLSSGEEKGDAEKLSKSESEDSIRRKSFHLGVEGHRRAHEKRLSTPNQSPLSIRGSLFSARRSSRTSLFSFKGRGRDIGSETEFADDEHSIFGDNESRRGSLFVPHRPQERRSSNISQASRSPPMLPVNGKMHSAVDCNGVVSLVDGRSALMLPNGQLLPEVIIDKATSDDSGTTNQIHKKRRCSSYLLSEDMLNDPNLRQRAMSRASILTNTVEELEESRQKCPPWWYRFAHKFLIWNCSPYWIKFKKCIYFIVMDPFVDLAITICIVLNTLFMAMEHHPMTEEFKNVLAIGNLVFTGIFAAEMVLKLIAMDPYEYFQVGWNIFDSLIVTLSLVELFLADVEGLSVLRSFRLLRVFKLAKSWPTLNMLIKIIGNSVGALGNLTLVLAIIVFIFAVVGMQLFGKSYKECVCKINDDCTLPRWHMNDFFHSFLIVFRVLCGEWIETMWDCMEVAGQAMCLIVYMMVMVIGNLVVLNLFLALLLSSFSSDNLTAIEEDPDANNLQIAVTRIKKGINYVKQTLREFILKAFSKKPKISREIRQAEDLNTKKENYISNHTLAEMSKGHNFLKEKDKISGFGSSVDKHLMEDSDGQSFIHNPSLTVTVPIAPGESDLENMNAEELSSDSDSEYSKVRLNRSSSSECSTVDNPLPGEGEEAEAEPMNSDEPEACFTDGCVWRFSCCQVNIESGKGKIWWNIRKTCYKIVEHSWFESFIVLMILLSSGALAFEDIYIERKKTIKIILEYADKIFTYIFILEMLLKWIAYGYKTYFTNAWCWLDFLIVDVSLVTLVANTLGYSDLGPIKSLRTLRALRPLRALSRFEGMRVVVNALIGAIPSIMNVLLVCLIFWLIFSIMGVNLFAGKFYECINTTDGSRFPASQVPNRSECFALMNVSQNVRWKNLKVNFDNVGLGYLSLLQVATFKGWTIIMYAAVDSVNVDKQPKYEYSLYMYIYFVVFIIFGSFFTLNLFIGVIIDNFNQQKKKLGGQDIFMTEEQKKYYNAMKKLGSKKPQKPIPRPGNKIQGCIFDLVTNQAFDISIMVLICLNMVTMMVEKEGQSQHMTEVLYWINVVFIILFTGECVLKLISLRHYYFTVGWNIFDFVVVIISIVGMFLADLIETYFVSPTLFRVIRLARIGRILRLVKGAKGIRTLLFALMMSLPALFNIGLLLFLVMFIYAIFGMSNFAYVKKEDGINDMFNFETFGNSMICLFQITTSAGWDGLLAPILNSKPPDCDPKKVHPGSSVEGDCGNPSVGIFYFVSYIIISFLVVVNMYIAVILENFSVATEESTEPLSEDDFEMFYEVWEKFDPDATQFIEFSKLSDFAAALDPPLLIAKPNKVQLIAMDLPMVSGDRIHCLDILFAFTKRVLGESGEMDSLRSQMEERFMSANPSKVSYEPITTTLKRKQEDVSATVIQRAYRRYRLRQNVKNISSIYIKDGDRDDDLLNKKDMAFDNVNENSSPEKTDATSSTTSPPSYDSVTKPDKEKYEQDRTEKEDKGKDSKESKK
row,Compound,IC50
1,"O=C(c1ccc2cc(Oc3ccc(C(F)(F)F)nc3)ccc2n1)N1C[C@@H](O)[C@@H](O)C1 [Example 546, [cis-3,4-dihydroxypyrrolidin-1-yl](6-{[6-(trifluoromethyl)pyridin-3-yl]oxy}quinolin-2-yl)methanone]",10.1 µM

# Same assay, conditions: HEK293 cells stably expressing recombinant human Nav1.7; veratridine + scorpion venom depolarization; read-out: FRET-Membrane Potential Nav1.7 IC50
row,Compound,IC50
1,"CCN(CC)C(=O)CCNC(=O)c1ccc2cc(Oc3ccc(C(F)(F)F)nc3)ccc2n1 [Example 524, N-[3-(diethylamino)-3-oxopropyl]-6-{[6-(trifluoromethyl)pyridin-3-yl]oxy}quinoline-2-carboxamide]",1.08 µM
2,"CC(C)NC(=O)CN(C)C(=O)c1ccc2cc(Oc3ccc(C(F)(F)F)nc3)ccc2n1 [Example 525, N-[2-(isopropylamino)-2-oxoethyl]-N-methyl-6-{[6-(trifluoromethyl)pyridin-3-yl]oxy}quinoline-2-carboxamide]",6.65 µM
3,"O=C(c1ccc2cc(Oc3ccc(C(F)(F)F)nc3)ccc2n1)N1CCC(N2CCOCC2)CC1 [Example 526, [4-(morpholin-4-yl)piperidin-1-yl](6-{[6-(trifluoromethyl)pyridin-3-yl]oxy}quinolin-2-yl)methanone]",3.09 µM
4,"N[C@@H]1[C@H]2CN(C(=O)c3ccc4cc(Oc5ccc(C(F)(F)F)nc5)ccc4n3)C[C@@H]12 [Example 528, meso-[(1R,5S,6s)-6-amino-3-azabicyclo[3.1.0]hex-3-yl](6-{[6-(trifluoromethyl)pyridin-3-yl]oxy}quinolin-2-yl)methanone]",2.92 µM
5,"O=C(N[C@@H]1CCOC1=O)c1ccc2cc(Oc3ccc(C(F)(F)F)cn3)ccc2n1 [Example 530, N-[(3R)-2-oxotetrahydrofuran-3-yl]-6-{[5-(trifluoromethyl)pyridin-2-yl]oxy}quinoline-2-carboxamide]",0.911 µM
6,"Cc1nc(CN2CCN(C(=O)c3ccc4cc(Oc5ccc(C(F)(F)F)cn5)ccc4n3)CC2)co1 [Example 531, {4-[(2-methyl-1,3-oxazol-4-yl)methyl]piperazin-1-yl}(6-{[5-(trifluoromethyl)pyridin-2-yl]oxy}quinolin-2-yl)methanone]",3.57 µM
7,"O=C(c1ccc2cc(Oc3ccc(C(F)(F)F)cn3)ccc2n1)N1CC2(CCOC2)C1 [Example 532, 6-oxa-2-azaspiro[3.4]oct-2-yl(6-{[5-(trifluoromethyl)pyridin-2-yl]oxy}quinolin-2-yl)methanone]",2.77 µM
8,"O=C(c1ccc2cc(Oc3ccc(C(F)(F)F)cn3)ccc2n1)N1CC2(CCCOC2)C1 [Example 533, 6-oxa-2-azaspiro[3.5]non-2-yl(6-{[5-(trifluoromethyl)pyridin-2-yl]oxy}quinolin-2-yl)methanone]",2.4 µM
9,"CS(=O)(=O)C1CN(C(=O)c2ccc3cc(Oc4ccc(C(F)(F)F)nc4)ccc3n2)C1 [Example 534, [3-(methylsulfonyl)azetidin-1-yl](6-{[6-(trifluoromethyl)pyridin-3-yl]oxy}quinolin-2-yl)methanone]",1.97 µM
10,"O=C(NC1CCS(=O)(=O)CC1)c1ccc2cc(Oc3ccc(C(F)(F)F)nc3)ccc2n1 [Example 535, N-(1,1-dioxidotetrahydro-2H-thiopyran-4-yl)-6-{[6-(trifluoromethyl)pyridin-3-yl]oxy}quinoline-2-carboxamide]",> 20 µM
11,"O=C(NC1COC1)c1ccc2cc(Oc3ccc(C(F)(F)F)nc3)ccc2n1 [Example 536, N-(oxetan-3-yl)-6-{[6-(trifluoromethyl)pyridin-3-yl]oxy}quinoline-2-carboxamide]",1.15 µM
12,"O=C(N[C@H]1CS(=O)(=O)C[C@H]1O)c1ccc2cc(Oc3ccc(C(F)(F)F)nc3)ccc2n1 [Example 537, N-[(3R,4S)-4-hydroxy-1,1-dioxidotetrahydrothiophen-3-yl]-6-{[6-(trifluoromethyl)pyridin-3-yl]oxy}quinoline-2-carboxamide]",2.71 µM
13,"O=C(N[C@@H]1CS(=O)(=O)C[C@H]1O)c1ccc2cc(Oc3ccc(C(F)(F)F)nc3)ccc2n1 [Example 538, N-[(3S,4S)-4-hydroxy-1,1-dioxidotetrahydrothiophen-3-yl]-6-{[6-(trifluoromethyl)pyridin-3-yl]oxy}quinoline-2-carboxamide]",3.16 µM
14,"O=C(c1ccc2cc(Oc3ccc(C(F)(F)F)nc3)ccc2n1)N1CC=CC1 [Example 539, 2,5-dihydro-1H-pyrrol-1-yl(6-{[6-(trifluoromethyl)pyridin-3-yl]oxy}quinolin-2-yl)methanone]",> 20 µM
15,"COC(C)(C)CNC(=O)c1ccc2cc(Oc3ccc(C(F)(F)F)cn3)ccc2n1 [Example 541, N-(2-methoxy-2-methylpropyl)-6-{[5-(trifluoromethyl)pyridin-2-yl]oxy}quinoline-2-carboxamide]",1.19 µM
16,"O=C(c1ccc2cc(Oc3ccc(C(F)(F)F)nc3)ccc2n1)N1CCN[C@@H](CO)C1 [Example 544, [(3R)-3-(hydroxymethyl)piperazin-1-yl](6-{[6-(trifluoromethyl)pyridin-3-yl]oxy}quinolin-2-yl)methanone]",3.45 µM
17,"O=C(c1ccc2cc(Oc3ccc(C(F)(F)F)nc3)ccc2n1)N1CCN[C@H](CO)C1 [Example 545, [(3S)-3-(hydroxymethyl)piperazin-1-yl](6-{[6-(trifluoromethyl)pyridin-3-yl]oxy}quinolin-2-yl)methanone]",3.7 µM
18,"O=C(c1ccc2cc(Oc3ccc(C(F)(F)F)nc3)ccc2n1)N1CC[C@@H](F)C1 [Example 548, [(3R)-3-fluoropyrrolidin-1-yl](6-{[6-(trifluoromethyl)pyridin-3-yl]oxy}quinolin-2-yl)methanone]",4.05 µM
19,"C[C@H]1CN(C(=O)c2ccc3cc(Oc4ccc(C(F)(F)F)nc4)ccc3n2)CCN1 [Example 549, [(3S)-3-methylpiperazin-1-yl](6-{[6-(trifluoromethyl)pyridin-3-yl]oxy}quinolin-2-yl)methanone]",2.49 µM
20,"O=C(c1ccc2cc(Oc3ccc(C(F)(F)F)nc3)ccc2n1)N1CC[C@H](F)C1 [Example 550, [(3S)-3-fluoropyrrolidin-1-yl](6-{[6-(trifluoromethyl)pyridin-3-yl]oxy}quinolin-2-yl)methanone]",10.7 µM
21,"CC1CN(C(=O)c2ccc3cc(Oc4ccc(C(F)(F)F)cn4)ccc3n2)CC(C)N1 (centres unmarked) [Example 552, (3,5-dimethylpiperazin-1-yl)(6-{[5-(trifluoromethyl)pyridin-2-yl]oxy}quinolin-2-yl)methanone]",0.615 µM
22,"O=C(c1ccc2cc(Oc3ccc(C(F)(F)F)nc3)ccc2n1)N1CC(N2CCOCC2)C1 [Example 554, [3-(morpholin-4-yl)azetidin-1-yl](6-{[6-(trifluoromethyl)pyridin-3-yl]oxy}quinolin-2-yl)methanone]",14.1 µM
23,"O=C(NC1CC(F)(F)C1)c1ccc2cc(Oc3ccc(C(F)(F)F)nc3)ccc2n1 [Example 555, N-(3,3-difluorocyclobutyl)-6-{[6-(trifluoromethyl)pyridin-3-yl]oxy}quinoline-2-carboxamide]",2.7 µM

# Same assay, conditions: read-out: FRET-Membrane Potential Nav1.7 IC50
row,Compound,IC50
1,"CNC(=O)c1ccc2cc(Oc3ccc(C(F)(F)F)cn3)ccc2n1 [Example 527, N-methyl-6-{[5-(trifluoromethyl)pyridin-2-yl]oxy}quinoline-2-carboxamide]",5.91 µM
2,"O=C(c1ccc2cc(Oc3ccc(C(F)(F)F)cn3)ccc2n1)N1CCC(N2CC(F)(F)C2)CC1 [Example 540, [4-(3,3-difluoroazetidin-1-yl)piperidin-1-yl](6-{[5-(trifluoromethyl)pyridin-2-yl]oxy}quinolin-2-yl)methanone]",4.03 µM
3,"O=C(c1ccc2cc(Oc3ccc(C(F)F)cn3)ccc2n1)N1CCN2CC(F)(F)C[C@H]2C1 [Example 542, [(8aS)-7,7-difluorohexahydropyrrolo[1,2-a]pyrazin-2(1H)-yl](6-{[5-(difluoromethyl)pyridin-2-yl]oxy}quinolin-2-yl)methanone]",14.5 µM
4,"CC[C@@H]1CN(C(=O)c2ccc3cc(Oc4ccc(C(F)(F)F)nc4)ccc3n2)CCN1 [Example 543, [(3R)-3-ethylpiperazin-1-yl](6-{[6-(trifluoromethyl)pyridin-3-yl]oxy}quinolin-2-yl)methanone]",0.398 µM
5,"O=C(NCCOC(F)(F)F)c1ccc2cc(Oc3ccc(C(F)(F)F)cn3)ccc2n1 [Example 547, N-[2-(trifluoromethoxy)ethyl]-6-{[5-(trifluoromethyl)pyridin-2-yl]oxy}quinoline-2-carboxamide]",3.29 µM
6,"O=C(NCC(O)C(F)(F)F)c1ccc2cc(Oc3ccc(C(F)(F)F)nc3)ccc2n1 (centres unmarked) [Example 551, N-(3,3,3-trifluoro-2-hydroxypropyl)-6-{[6-(trifluoromethyl)pyridin-3-yl]oxy}quinoline-2-carboxamide]",2.77 µM
7,"CC[C@H]1CN(C(=O)c2ccc3cc(Oc4ccc(C(F)(F)F)nc4)ccc3n2)CCN1 [Example 553, [(3S)-3-ethylpiperazin-1-yl](6-{[6-(trifluoromethyl)pyridin-3-yl]oxy}quinolin-2-yl)methanone]",0.949 µM
8,"O=C1CC(NC(=O)c2ccc3cc(Oc4ccc(C(F)(F)F)nc4)ccc3n2)C1 [Example 556, N-(3-oxocyclobutyl)-6-{[6-(trifluoromethyl)pyridin-3-yl]oxy}quinoline-2-carboxamide]",2.81 µM
9,"O=C(c1ccc2cc(Oc3ccc(C(F)(F)F)cn3)ccc2n1)N1CC(N2CCNCC2)C1 [Example 557, [3-(piperazin-1-yl)azetidin-1-yl](6-{[5-(trifluoromethyl)pyridin-2-yl]oxy}quinolin-2-yl)methanone]",16.7 µM
10,"O=C(c1ccc2cc(Oc3ccc(C(F)F)cn3)ccc2n1)N1CCNC2(CC2)C1 [Example 558, 4,7-diazaspiro[2.5]oct-7-yl(6-{[5-(difluoromethyl)pyridin-2-yl]oxy}quinolin-2-yl)methanone]",4.49 µM
11,"O=C(NCC(=O)N1CC[C@@H](O)C1)c1ccc2cc(Oc3ccc(C(F)(F)F)cn3)ccc2n1 [Example 559, N-{2-[(3R)-3-hydroxypyrrolidin-1-yl]-2-oxoethyl}-6-{[5-(trifluoromethyl)pyridin-2-yl]oxy}quinoline-2-carboxamide]",3.02 µM
